Data set [1] is described as follows: Viscosity of aqueous solutions. It is filed as physicochemical.
Data set [2] is described as follows: Osmolality of aqueous solutions. The format is physicochemical.
For a further data set, the system named is rat. Briefly: ED50 after intracisternal (i.cis.) administration. The format is in vivo.
A further data set relates to Sprague-Dawley rats. Briefly: Intravenous toxicity, lethal dose for 50% of the animals. It is filed as in vivo. To be noted: i.v. via the caudal vein at 2.2ml/min, mortality during seven days.
A short description of a further data set: Iodine content. The format is physicochemical. To be noted: for Iodine Content (%): comparison table with IOTROLAN

`COCC(=O)Nc1c(I)c(C(=O)NCC(O)CO)c(I)c(C(=O)N(C)CC(=O)N(C)c2c(I)c(C(=O)NC(CO)C(O)CO)c(I)c(C(=O)NC(CO)C(O)CO)c2I)c1I` (stereo not shown) [EXAMPLE 9, N,N'-bis-(1-hydroxymethyl-2,3-dihydroxypropyl)-5-{3-[N-(2,3-dihydroxypropyl)carbamoyl]-5-methoxyacetamido-2,4,6-triiodobenzoyl-N-methylaminoacetyl-N-methylamino}-2,4,6-tri-iodoisophthalamide]: in data set [1], the “Viscosity (mPa.S at 300 mg I/ml) 37°C” value is reported as 8,2 mPa.S and the “Viscosity mPa s (30°C) at 300mg I/ml” value was 8,2 mPa s. In data set [2], the “Osmolality mosm/kg at 300mg I/ml” value is reported as 226 mosm/kg and the “Osmolality (mOsm/kg at 300 mg I/ml) 37°C” value is listed as 226 mOsm/kg. Also, the “ED50, rat i.cis. (mg I/kg)” value in the data set on rat is listed as 350 mg I/kg. The “LD50, rat i.v. (g I/kg)” value with Sprague-Dawley rats is given as 20-25 g I/kg. Further, in “Iodine content”, the “% Iodine” value is on record as 49,6% and the “Iodine Content (%)” value is given as 49,6%.
On to `CN(CC(=O)N(C)c1c(I)c(C(=O)NCC(O)CO)c(I)c(C(=O)NCC(O)CO)c1I)C(=O)c1c(I)c(NC(=O)CO)c(I)c(C(=O)NCC(O)CO)c1I` (stereo not shown) [EXAMPLE 11, N,N'-bis-(2,3-dihydroxypropyl)-5-{3-[N-(2,3-dihydroxypropyl)carbamoyl]-5-hydroxyacetamido-2,4,6-triiodobenzoyl-N-methylaminoacetyl-N-methylamino}-2,4,6-triiodo isophthalamide], for which, in data set [1], the “Viscosity (mPa.S at 300 mg I/ml) 37°C” value was 7,0 mPa.S and the “Viscosity mPa s (30°C) at 300mg I/ml” value is listed as 6,9 mPa s. In data set [2], the “Osmolality mosm/kg at 300mg I/ml” value stood at 152 mosm/kg and the “Osmolality (mOsm/kg at 300 mg I/ml) 37°C” value was 152 mOsm/kg. Also, the “ED50, rat i.cis. (mg I/kg)” value in the data set on rat is on record as 500 mg I/kg. In addition, the “LD50, rat i.v. (g I/kg)” value with Sprague-Dawley rats worked out at 23 g I/kg. Moreover, in “Iodine content”, the “% Iodine” value was determined as 52% and the “Iodine Content (%)” value is given as 52,1%.
On to `COCCN(C(=O)CO)c1c(I)c(C(=O)NCC(=O)N(CCOC)c2c(I)c(C(=O)NCC(O)CO)c(I)c(C(=O)NCC(O)CO)c2I)c(I)c(C(=O)NCC(O)CO)c1I` (stereo not shown) [EXAMPLE 40, N,N'-bis-(2,3-dihydroxypropyl)-5-{3-[N-(2,3-dihydroxypropyl)carbamoyl]-5-hydroxyacetyl-N-(2-methoxyethyl)amino-2,4,6-triiodobenzoylaminoacetyl-N-(2-methoxyethyl)amino} -2,4,6-triiodoisophthalamide], for which the “Viscosity mPa s (30°C) at 300mg I/ml” value in data set [1] is 10,2 mPa s. The “Osmolality mosm/kg at 300mg I/ml” value in data set [2] was 160 mosm/kg. Further, the “% Iodine” value in the data set “Iodine content” is 49,1%.
For `COCC(=O)Nc1c(I)c(C(=O)N(C)CC(=O)N(C)c2c(I)c(C(=O)NCC(O)CO)c(I)c(C(=O)NCC(O)CO)c2I)c(I)c(C(=O)N(CCO)CC(O)CO)c1I` (stereo not shown) [EXAMPLE 41, N,N'-bis-(2,3-dihydroxypropyl)-5-{3-[N-(2-hydroxyethyl)-N-(2,3-dihydroxypropyl)carbamoyl]-5-methoxyacetamido-2,4,6-triiodobenzoyl-N-methylaminoacetyl-N-methylamino} --2,4,6-triiodoisophthalamide], in data set [1], the “Viscosity mPa s (30°C) at 300mg I/ml” value is 9,0 mPa s. Moreover, the “Osmolality mosm/kg at 300mg I/ml” value in data set [2] is listed as 135 mosm/kg. Moreover, in the data set “Iodine content”, the “% Iodine” value was 50,0%.
In the same order, the values of `CC(=O)Nc1c(I)c(C(=O)NCC(O)CO)c(I)c(C(=O)N(C)CC(=O)N(C)c2c(I)c(C(=O)N(CCO)CC(O)CO)c(I)c(C(=O)N(CCO)CC(O)CO)c2I)c1I` (stereo not shown) [EXAMPLE 42, N,N'-bis-(2-hydroxyethyl)-N,N'-bis-(2,3-dihydroxypropyl)-5-{3-[N-(2,3-dihydroxypropyl)carbamoyl]-5-acetamido-2,4,6-triiodobenzoyl-N-methylaminoacetyl-N-methylamino}-2,4,6-triiodoisophthalamide] are 8,8 mPa s, 180 mosm/kg and 49,6%.
